Measurements published in patent US10132029B2, “Method for reducing adhesion of microorganisms to fabrics” (priority 2013, dated 2018).

Key:
Escherichia coli = test: Bacterial adhesion to coated glass slides via fluorescence microscopy (DAPI); type: cell-based; settings: for Reduction in cell count relative to control [%] E. coli: coated glass slide vs uncoated glass control K; for Cell count [1/cm^2] E. coli: glass slide coated from 0.1% strength solution, bacterial suspension 10^9 microbes/ml, 30 measuring windows
Description: (§1) Silane derivatives S1, S3, S4 and S5 as identified above in example 1 were used to produce coatings on glass slides. As a control (comparison sample) K, an uncoated glass slide cleaned with isopropanol was used.
(§2) For the coating of the slides they were immersed for 60 seconds into a 0.1% strength solution of the corresponding silane derivative in ethanol/water as solvent with a water fraction of 5%. The solutions had been adjusted with acetic acid beforehand to a pH in the range from 4 to 5. The wetted slides were subsequently dried at 160° C. for 1 hour.
(§3) The slides wetted with the bacterial suspension were analyzed by microscope to determine the adhering bacteria. […] The fluorescent dye used was DAPI (4′,6-diamidine-2-phenylindole), which binds to DNA and fluoresces under UV excitation. In order to determine the adhesion characteristics, the cell counts per cm^2 were ascertained in 30 measuring windows, and the adhesion pattern was evaluated. Cell attachment was evaluated on an Olympus IX 51 using the Labflow AnalySIS image processing program.
(§4) Bacterial suspensions produced and used were suspensions of test cultures of the strains Staphylococcus aureus and Escherichia coli. The concentration of the bacterial suspension was 10^9 microbes/ml.

Staphylococcus aureus = type: cell-based; settings: for Reduction in cell count relative to control [%] S. aureus: coated glass slide vs uncoated glass control K; for Cell count [1/cm^2] S. aureus: glass slide coated from 0.1% strength solution, bacterial suspension 10^9 microbes/ml, 30 measuring windows
Description: as §1, §2, §3, §4

| Compound | Reduction in cell count relative to control [%] E. coli (Escherichia coli) [%] | Cell count [1/cm^2] E. coli (Escherichia coli) | Reduction in cell count relative to control [%] S. aureus (Staphylococcus aureus) [%] | Cell count [1/cm^2] S. aureus (Staphylococcus aureus) | adhesion of bacteria to coated glass, assessment in words (Escherichia coli; both series of tests (S. aureus and E. coli), compared with glass control) | adhesion of S. aureus to coated glass, assessment in words (Staphylococcus aureus; coated glass slides) |
| --- | --- | --- | --- | --- | --- | --- |
| CO[Si](CCCN(CCN(CC(=O)[O-])CC(=O)[O-])CC(=O)[O-])(OC)OC.[Na+].[Na+].[Na+] [S5, N-(trimethoxysilylpropyl)ethylenediaminetriacetyl acid, trisodium salt] | 61 | 306 000 1/cm^2 | 52 | 219 000 1/cm^2 | – | – |
| N-(triethoxysilylpropyl)-O-polyethylene oxide-urethane, (4-6 EO units) [S3] | 71 | 233 000 1/cm^2 | 83 | 77 000 1/cm^2 | very good results | Very good results |
